One data set is described as follows: Acute oral toxicity. In kind it is in vivo. To be noted: rat.
For data set [1] the following is noted: guinea pig, in vivo.
The conditions of data set [2]: guinea pig, in vivo. This is another data set of the same source.
The test system of data set [3] is Fibroblasts originating in the human skin. In words: Promotion of growth of dermal fibroblasts (Test Example 1). In kind it is cell-based. To be noted: 10⁻⁵ M, 1% serum, 14 days; words of the text only, Table 2 is an image. On the procedure: The action of promoting the growth of dermal fibroblasts by the coenzymes and nucleic acid related substances used in the present invention was evaluated in accordance with the following method:
Fibroblasts originating in the human skin were cultured in media to which the above-described compounds had been added and to which no such compound was added under serum controlled conditions and the effect of the compounds on proliferation was examined. That is, the above-described fibroblasts were cultured in a Co₂-incubator at 37°C for 24 hours in Eagle's MEM medium (pH 7.6) to which were added 10% of fetal bovine serum and the like. The medium was then changed to a medium in which the serum was lowered 1% and in which the fibroblasts were then cultured for 24 hours. The medium was then changed into a medium containing 10⁻⁵ M of a substance for examination and 1% of serum in which the culture was continued.
The medium was then changed on alternate days. The results obtained are shown in Table 2 in which the number of cells for each case is shown by a relative value obtained by assuming the number of cells after 14 days to be 100 in the case of the control in which no substance for examination was added.

Another data set deals with collagen elastin fibril. The data set is described as follows: Tensile strength of healed linear skin cut in rats (Test Example 3). The note with it: for increases in the tensile strength of collagen elastin fibril (in words): summary of Table 4. In kind it is in vivo, Wistar 6-week old male rats. How it is done: The effect of the coenzymes and the nucleic acid related substances against the strength of collagen elastin fibril was conducted as follows:
After hair had been removed from the back of each rat in a group comprising eight Wistar 6-week old male rats, the back of the rat was cut along the median line of the back by a scalpel to make a linear cut portion having a length of 4 cm, and the cut portion was sewed up at 3 positions at equally spaced intervals by Michel's clips. The Michel's clips were removed 3 days after the sewing. 0.1 ml of each of physiological saline containing 50 mM of the above described compound or a physiological saline containing no compound (control) was repeatedly applied to the cut portion once a day for 7 days. Each rat was killed on the eighth day, and the skin of the cut portion was cut out to prepare three samples per rat, each sample being a strip of skin having a width of 1 cm crossing the cutting line.
The tensile strength of the sample up to breakage point was measured by a tensiometer to determine the strength of reproduced collagen elastin fibril. In the Table, values of the strength are shown as relative values obtained on the assumption that those of the control were 100.
In the above test, a relative value of the strength of more than 110 is considered to show an increase in the tensile strength.

For data set [4] the following is noted: in vivo.
The conditions of data set [5]: rabbit, in vivo.
Another data set relates to collagen. In words: Promotion of collagen production in skin-excised rats: weight of granulation and hydroxyproline (Test Example 2). In kind it is in vivo, Wistar 6-week old male rats. The note with it: for increases in the weights of regenerated granulation and the amounts of hydroxyproline (in words): summary of Table 3. On the procedure: The action of promoting the production of collagen by the coenzymes and the nucleic acid related substances used in the present invention was evaluated in accordance with the following method:
Each rat was killed on the seventh day, and then the circular portion was cut out and the weight of granulation (derma) and the amount of hydroxyproline, which is a specific amino acid constituting collagen, were measured as an index of the amount of reproduced collagen.

The conditions of data set [6]: guinea pig, in vivo. The source holds these as a separate data set.
For data set [7] the following is noted: guinea pig, in vivo. This is another data set of the same source.
Data set [8] in a line: Half face use test of cosmetic agents on women: elasticity, complexion, roughness, wrinkling of the skin. In kind it is in vivo, human. To be noted: Example 9: toilet water as in Example 7 with this compound in place of N²,O^2ʹ-DBcGMP Na. The text has this: Two groups each of which comprised 20 statistically-equivalent women (30 to 50 years old) were selected and the toilet water samples I and II were applied separately to the right and left face portions, respectively, of each woman in one group and the toilet water samples I and III were respectively applied to same portions of each woman in the other group by a half face method twice a day (in the morning and at night) for 3 months. The degree of improvement in terms of elasticity, complexion, roughness, and wrinkling of the skin were then examined. […]
The effectiveness of thus-prepared toilet waters was actually measured by the same method as set forth in Example 1.
The toilet water samples of the present invention and of the comparison were applied separately to the right and left face portions, respectively, of each woman in a group comprising 20 women (30 to 50 years old) by a half face method twice a day (in the morning and at night) for 3 months. The degree of improvement in terms of elasticity, complexion, roughness, and wrinkles of the skin was then examined. […]

The nature of data set [9]: Lightness of discolored spot or freckled portion of human skin, color-difference meter (Example 11). The note with it: Example 12: cream as in Example 11 with this compound instead of N²,O^2ʹ-DBcGMP Na and cGMP Na. In kind it is in vivo. On the procedure: Creams having the compositions shown in Table 23 were prepared and then applied to a discolored spot or freckled portion of the skin of each of 6 men and women in the morning and at night twice a day for 3 months. The lightness of the discolored spot portions was measured by a color-difference meter before and after the application.
The numerical values obtained before and after the application shown in the table are L-values (lightness).

The nature of data set [10]: Colour tone of the skin of colored guinea pigs, color-difference meter (Example 10). To be noted: cream with 0.5% of active principle, twice a day for 14 days; larger value = whiter skin. In kind it is in vivo, guinea pig. On the procedure: After hair had been removed from the back of each colored guinea pig (3 guinea pigs in a group), a cream with which 0.5% of an active principle was mixed (cGMP or its derivatives in place of FAD 2Na used in Example 2) and a cream containing no active principle were respectively applied to the back of each guinea pig twice a day (in the morning and at night) every day for 14 days. The difference in colour tone of the skin before and after the application was measured by a color-difference meter.
The numerical values shown in the table are L-values (lightness) and a larger value indicates a whiter skin.

The nature of data set [11]: Safety tests in the same way as in Example 1 (acute toxicity, skin irritation, skin sensitization). In kind it is in vivo. An excerpt: The above-described coenzymes and nucleic acid related substances used in the present invention are widely present in organisms and are thus thought to be extremely safe.
The mark [12] stands for this setting: relative value, control = 100, 0.1 ml of 50 mM in 10% ethanol twice a day for 6 days, seventh day.
The mark [13] stands for this setting: tested in the same way as in Example 1.

In the case of 5ʹ-deoxyadenosylcobalamine [CoB12], the LD50 value entry in “Acute oral toxicity” is recorded as “LD50 value; 5 g/kg or more”. Moreover, the Primary skin irritation in [1] is 5%; non-irritant. Besides, the Phototoxicity entry in data set [2] is listed as “negative”. The “growth promotion functions for human fibroblasts” value in data set [3] is on record as “particularly excellent effects”. For the same compound, the Tensile strength in the data set on collagen elastin fibril (relative value, control = 100, more than 110 is considered an increase, 0.1 ml of 50 mM in physiological saline once a day for 7 days, eighth day) is given as 122. In addition, the “increases in the tensile strength of collagen elastin fibril (in words)” value with collagen elastin fibril is reported as “particularly excellent effect”. Further, in [4], the Human patch test is 5%; non-irritant. Also, the Ocular-mucous membrane irritation in data set [5] is recorded as 5%, non-irritant. Also, in the data set with collagen (setting [12]), the Amount of hydroxyproline turned out to be 167 and the Weight of granulation worked out at 181. The “increases in the weights of regenerated granulation and the amounts of hydroxyproline (in words)” value with collagen was “particularly excellent effects”. Moreover, in data set [6], the Skin sensitization result was “negative”. In data set [7], the Photosensitization result is on record as “negative”.
Regarding `Nc1nc2c(nc(Br)n2[C@@H]2O[C@@H]3COP(=O)(O)O[C@H]3[C@H]2O)c(=O)[nH]1` [8-BrcGMP Na], the “effect of preventing the aging of the skin” value (shortened to “effect”) in data set [8] is given as “excellent effects similar to those of Example 7”. For the same compound, the “properties of the creams (lightness of discolored spots)” value (shortened to “properties of the creams”) in data set [9] is “results similar to those in Example 11”. For the same compound, in data set [10], the “L-values (lightness) After application” value is 45.4.
Take `Nc1nc2c(nc(Sc3ccc(Cl)cc3)n2[C@@H]2O[C@@H]3COP(=O)(O)O[C@H]3[C@H]2O)c(=O)[nH]1` [8-ClPhScGMP Na]: the “L-values (lightness) After application” value in data set [10] amounted to 45.3.
Consider `CC(C)(COP(=O)(O)OP(=O)(O)OC[C@H]1O[C@@H](n2cnc3c(N)ncnc32)[C@H](O)[C@@H]1OP(=O)(O)O)[C@@H](O)C(=O)NCCC(=O)NCCS` [CoA 3Na, coenzyme A], for which the “growth promotion functions for human fibroblasts” value in data set [3] is reported as “particularly excellent effects”. Further, the “increases in the tensile strength of collagen elastin fibril (in words)” value in the data set on collagen elastin fibril was “particularly excellent effect”. For the same compound, the “increases in the weights of regenerated granulation and the amounts of hydroxyproline (in words)” value in the data set on collagen was “particularly excellent effects”. Moreover, the “safety with respect to skin irritation, etc.” value (from here on “safety”) in data set [11] (in vivo) is on record as “no problem was observed”.
For the compound `Cc1cc2nc3c(=O)[nH]c(=O)nc-3n(C[C@H](O)[C@H](O)[C@H](O)COP(=O)(O)OP(=O)(O)OC[C@H]3O[C@@H](n4cnc5c(N)ncnc54)[C@H](O)[C@@H]3O)c2cc1C` [FAD 2Na, Flavin adenine dinucleotide], the “safety” value in [11] (setting [13]) is “no problem was observed”.
For `NC(=O)c1ccc[n+]([C@@H]2O[C@H](COP(=O)([O-])OP(=O)(O)OC[C@H]3O[C@@H](n4cnc5c(N)ncnc54)[C@H](O)[C@@H]3O)[C@@H](O)[C@H]2O)c1` [NAD Na, β-nicotinamide adenine dinucleotide], the “safety” value in data set [11] (setting [13]) is on record as “no problem was observed”.
Still for that read-out and setting: the entry for `NC(=O)c1ccc[n+]([C@@H]2O[C@H](COP(=O)([O-])OP(=O)(O)OC[C@H]3O[C@@H](n4cnc5c(N)ncnc54)[C@H](OP(=O)(O)O)[C@@H]3O)[C@@H](O)[C@H]2O)c1` [NADP Na, β-nicotinamide adenine dinucleotide phosphate] is “no problem was observed”.
Consider `CCCC(=O)Nc1nc2c(ncn2[C@@H]2O[C@@H]3COP(=O)(O)O[C@H]3[C@H]2OC(=O)CCC)c(=O)[nH]1` [N^2,O^2'-DBcGMP Na], for which, in [11] (setting [13]), the “safety” value is recorded as “problems such as skin irritating property were not found”. Besides, in data set [10], the “L-values (lightness) After application” value amounted to 45.5.
For `O=C(O)CCC(=O)Nc1nc2c(ncn2[C@@H]2O[C@@H]3COP(=O)(O)O[C@H]3[C@H]2OC(=O)CCC(=O)O)c(=O)[nH]1` [N^2,O^2'-DScGMP Na], the “effect” value in data set [8] is given as “excellent effects similar to those of Example 7”. In addition, the “L-values (lightness) After application” value in data set [10] is recorded as 45.3.
As for `CCCC(=O)Nc1nc2c(ncn2[C@@H]2O[C@@H]3COP(=O)(O)O[C@H]3[C@H]2O)c(=O)[nH]1` [N^2-MBcGMP Na], the “effect” value in data set [8] was “excellent effects similar to those of Example 7”. For the same compound, the “properties of the creams” value in [9] was “results similar to those in Example 11”. For the same compound, the “L-values (lightness) After application” value in data set [10] is reported as 44.6.
`O=C(O)CCC(=O)Nc1nc2c(ncn2[C@@H]2O[C@@H]3COP(=O)(O)O[C@H]3[C@H]2O)c(=O)[nH]1` [N^2-MScGMP Na]: the “L-values (lightness) After application” value in data set [10] is given as 44.6.
As to `CCCC(=O)OC1C2OP(=O)(O)OCC2OC1n1cnc2c(=O)[nH]c(N)nc21` (stereo not drawn) [O^2'-MBcGMP Na], the “effect” value in data set [8] was “excellent effects similar to those of Example 7”. Moreover, the “properties of the creams” value in data set [9] is listed as “results similar to those in Example 11”. The “L-values (lightness) After application” value in [10] is reported as 43.7.
As to `Nc1nc2c(ncn2[C@@H]2O[C@@H]3COP(=O)(O)O[C@H]3[C@H]2OC(=O)CCC(=O)O)c(=O)[nH]1` [O^2'-MScGMP Na], the “L-values (lightness) After application” value in data set [10] was determined as 43.8.
Regarding `O=C(O)c1cc(C(=O)O)c2c(n1)C(=O)C(=O)c1cc(C(=O)O)[nH]c1-2` [PQQ 2Na, Pyrrolo-quinoline quinone], the “safety” value in data set [11] (in vivo) is on record as “no problem was observed”.
As to `Nc1nc2c(ncn2[C@@H]2O[C@@H]3COP(=O)(O)O[C@H]3[C@H]2O)c(=O)[nH]1` [cGMP Na, guanosine 3ʹ,5ʹ-cyclic monophosphate], in data set [11] (setting [13]), the “safety” value is given as “no problem”. Further, the “L-values (lightness) After application” value in data set [10] stood at 43.0.

The values above are taken from patent EP0256472A2, “Cosmetic agent for application to skin” (priority 1986, dated 1988).
